Test results published in patent publication US20230265151A1, “GIP/GLP1 CO-AGONIST COMPOUNDS” (priority 2020, published 2023).
Read-outs that look alike come from different tables or passages of the source.

Experiments:
hGCGR = molecular target: T1, hGCGR (Homo sapiens, UniProt P47871); experiment: Functional cAMP formation (HTRF) in HEK-293 clonal cells expressing hGCGR, 0.1% bovine casein, without or with 1.0% human serum albumin; format: cell-based; conditions: geometric mean, read-out: hGCGR EC50, nM (SEM, n)
T1 construct: expressed in transfected cells
How it was run: (§1)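 Cells were stimulated with peptide for 30 min at 37° C, then lysed in buffer carrying cAMP-d2 and anti-cAMP Eu3+-cryptate for a competitive HTRF read after at least 60 min at room temperature. The 665/620 nm ratio was converted to nM cAMP against a standard curve.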

hGLP-1R = hGLP-1R (Homo sapiens, UniProt P43220); experiment: Functional cAMP formation (HTRF) in HEK-293 clonal cells expressing hGLP-1R, 0.1% bovine casein, without or with 1.0% human serum albumin; format: cell-based; design: expressed in transfected cells; conditions: geometric mean, read-out: hGLP-1R EC50, nM (SEM, n)
How it was run: as §1

hGIPR = molecular target: T2, hGIPR (Homo sapiens, UniProt P48546); experiment: Functional cAMP formation (HTRF) in HEK-293 clonal cells expressing hGIPR, 0.1% bovine casein, without or with 1.0% human serum albumin; format: cell-based; conditions: for EC50: geometric mean, read-out: hGIPR EC50, nM (SEM, n); for Emax: read-out: hGIPR Emax, % ± SEM
T2 construct: expressed in transfected cells
T2 sequence (P48546 22-466): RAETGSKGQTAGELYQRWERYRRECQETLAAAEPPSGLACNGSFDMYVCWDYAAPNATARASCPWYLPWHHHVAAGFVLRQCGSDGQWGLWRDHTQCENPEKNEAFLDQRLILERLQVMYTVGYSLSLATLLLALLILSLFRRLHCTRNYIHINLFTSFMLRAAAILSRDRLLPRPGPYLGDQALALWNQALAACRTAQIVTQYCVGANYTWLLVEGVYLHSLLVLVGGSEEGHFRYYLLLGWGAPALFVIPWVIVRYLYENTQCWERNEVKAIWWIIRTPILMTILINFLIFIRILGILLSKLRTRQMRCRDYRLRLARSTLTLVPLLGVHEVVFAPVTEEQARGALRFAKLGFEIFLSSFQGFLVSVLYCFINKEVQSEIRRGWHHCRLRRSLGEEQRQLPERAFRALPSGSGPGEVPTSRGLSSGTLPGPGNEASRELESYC
How it was run: as §1

[1] = molecular target: T3, human Gcg receptor (hGcgR) (Homo sapiens, UniProt P47871); experiment: [125I]-Glucagon binding, SPA with membranes of HEK293 cells expressing hGcgR; conditions: human GcgR; geometric mean (SEM, n); read-out: Binding Affinity Ki, nM (SEM, n) hGCGR
T3 construct: expressed in transfected cells; crude membranes
Procedure: Two methods are used for the preparation of crude cell membranes.
Method 1: Frozen cell pellets are lysed on ice in hypotonic buffer containing 50 mM Tris HCl, pH 7.5, and Roche Complete™ Protease Inhibitors with EDTA. […] The homogenate is centrifuged at 4° C. at 1100 × g for 10 minutes. The supernatant is collected and stored on ice while the pellets are resuspended in homogenization buffer and rehomogenized as described above. The homogenate is centrifuged at 1100 × g for 10 minutes. The second supernatant is combined with the first supernatant and centrifuged at 35000 × g for 1 hour at 4° C. The resulting membrane pellet is resuspended in homogenization buffer containing protease inhibitors at approximately 1 to 3 mg/mL, quick frozen in liquid nitrogen and stored as aliquots in a -80° C. freezer until use.
The homogenate is centrifuged at 4° C. at 1800 × g for 15 minutes. The supernatant is collected and stored on ice while the pellets are resuspended in homogenization buffer (without DNAse I) and rehomogenized as described above. The homogenate is centrifuged at 1800 × g for 15 minutes. The second supernatant is combined with the first supernatant and centrifuged an additional time at 1800 × g for 15 minutes. The overall supernatant is then centrifuged at 25000 × g for 30 minutes at 4° C. The resulting membrane pellet is resuspended in homogenization buffer (without DNAse I) containing protease inhibitors at approximately 1 to 3 mg/mL and stored as aliquots in a -80° C. freezer until use.
The human Gcg receptor binding assays are performed using a Scintillation Proximity Assay (SPA) format with wheat germ agglutinin (WGA) beads (Perkin Elmer). The binding buffer contains 25 mM 4-(2-hydroxyethyl)-1-piperazineethanesulfonic acid (HEPES), pH 7.4, 2.5 mM CaCl2, 1 mM MgCh, 0.1% (w/v) bacitracin (Research Products), 0.003% (w/v) Polyoxyethylenesorbitan monolaurate (TWEEN®-20), and Roche Complete™ Protease Inhibitors without EDTA. […] Next, 5 µL serially diluted compound or DMSO is transferred into Corning® 3632 clear bottom assay plates containing 45 µL assay binding buffer or unlabeled Gcg control (non-specific binding or NSB, at 1 µM final). […] Plates are sealed and mixed on a plate shaker (setting 6) for 1 minute and read with a PerkinElmer Trilux MicroBeta® scintillation counter after 12 hours of incubation/settling time at room temperature.
Raw CPM data for concentration curves of peptides, Gcg, GLP-1, or GIP are converted to percent inhibition by subtracting nonspecific binding (binding in the presence of excess unlabeled Gcg, GLP-1, or GIP, respectively) from the individual CPM values and dividing by the total binding signal, also corrected by subtracting nonspecific binding. Data are analyzed using four-parameter (curve maximum, curve minimum, IC50, Hill slope) nonlinear regression routines (Genedata Screener, version 12.0.4, Genedata AG, Basal, Switzerland). […] Values for Ki are reported as the geometric mean, with error expressed as the standard error of the mean (SEM) and n is equal to the number of independent replicates (determined in assays performed on different days). Geometric Means are calculated as follows: […]
The Ki Ratio (Ki for native control peptide/Ki for test compound) at each receptor and each species is calculated. The Ki Ratio is a rapid indication of the apparent affinity of a peptide compared to the native control peptide.
n=⅟x means that only one value out of the total number of replicates (x) is used to express the mean. SEM is only calculated when n=2 or greater non-qualified results exist. Means are expressed as GeoMetric means with the standard error of the mean (SEM) and the number of replicates (n) indicated in parenthesis.

[2] = 0.1% bovine casein and 1.0% human serum albumin, 37° C.
[3] = cAMP, incubated at 37° C., 0.1% bovine casein (no human serum albumin)
[4] = HEK293, 0.1% bovine casein and 1.0% human serum albumin, 37° C., percent of maximal response to GIP(1-42)NH2

hGLP-1R, sequence (P43220 24-463): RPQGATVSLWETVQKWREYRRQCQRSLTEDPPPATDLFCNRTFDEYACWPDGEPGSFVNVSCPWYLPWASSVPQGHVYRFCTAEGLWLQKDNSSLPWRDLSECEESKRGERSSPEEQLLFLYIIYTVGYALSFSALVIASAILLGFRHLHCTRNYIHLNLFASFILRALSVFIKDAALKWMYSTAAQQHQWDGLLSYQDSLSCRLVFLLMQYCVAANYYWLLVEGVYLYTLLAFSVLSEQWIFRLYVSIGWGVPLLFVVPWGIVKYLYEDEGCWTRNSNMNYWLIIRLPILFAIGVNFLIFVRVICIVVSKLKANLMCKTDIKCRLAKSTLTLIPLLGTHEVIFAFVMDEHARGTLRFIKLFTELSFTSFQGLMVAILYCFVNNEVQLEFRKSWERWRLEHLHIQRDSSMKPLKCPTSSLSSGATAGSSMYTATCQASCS
T3 sequence (P47871 26-477): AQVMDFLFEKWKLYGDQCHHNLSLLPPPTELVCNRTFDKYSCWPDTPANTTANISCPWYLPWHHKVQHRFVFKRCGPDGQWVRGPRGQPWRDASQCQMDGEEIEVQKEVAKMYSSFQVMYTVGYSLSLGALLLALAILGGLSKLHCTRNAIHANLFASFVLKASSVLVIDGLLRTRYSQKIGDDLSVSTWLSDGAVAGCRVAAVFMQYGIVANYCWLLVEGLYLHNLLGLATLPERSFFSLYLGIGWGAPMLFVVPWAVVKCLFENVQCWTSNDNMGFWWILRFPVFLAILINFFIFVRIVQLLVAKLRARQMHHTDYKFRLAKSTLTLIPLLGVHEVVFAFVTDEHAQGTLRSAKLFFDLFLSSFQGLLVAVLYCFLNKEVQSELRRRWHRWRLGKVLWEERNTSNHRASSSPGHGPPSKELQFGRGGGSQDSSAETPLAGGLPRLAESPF
T1 sequence (P47871 26-477): as above

Row | Structure (SMILES) | EC50 (hGCGR; [2]) [nM] | EC50 (hGCGR; [3]) [nM] | EC50 (hGLP-1R; [2]) [nM] | EC50 (hGIPR; [2]) [nM] | Emax (hGIPR; [4]) [%] | Emax (hGIPR; HEK293, percent of maximal response to GIP(1-42)NH2, 37° C., 0.1% bovine casein, arithmetic mean) [%] | EC50 (hGIPR; [3]) [nM] | Ki [1] [nM] | EC50 (hGLP-1R; [3]) [nM]
1 | CC[C@H](C)[C@H](NC(=O)[C@H](CC(C)C)NC(=O)[C@](C)(Cc1ccc(O)cc1)NC(=O)[C@@H](CCC(=O)O)NC(=O)[C@@H](NC(=O)[C@H](Cc1ccccc1)NC(=O)[C@H](CCC(=O)O)NC(=O)C(C)(C)NC(=O)[C@H](CCC(N)=O)NC(=O)[C@H](C)NC(=O)[C@H](CCCCNC(=O)COCCOCCNC(=O)COCCOCCNC(=O)CC[C@H](NC(=O)CCCCCCCCCCCCC(=O)O)C(=O)O)NC(=O)[C@H](CCCN)NC(=O)[C@H](CC(=O)O)NC(=O)[C@H](CC(C)C)NC(=O)[C@](C)(CC(C)C)NC(=O)[C@@H](NC(=O)[C@H](CO)NC(=O)[C@H](Cc1ccncc1)NC(=O)[C@H](CC(=O)O)NC(=O)[C@H](CO)NC(=O)[C@@H](NC(=O)[C@](C)(Cc1ccccc1F)NC(=O)[C@@H](NC(=O)CNC(=O)[C@H](CCC(=O)O)NC(=O)C(C)(C)NC(=O)[C@@H](N)Cc1ccc(O)cc1)[C@@H](C)O)[C@@H](C)O)[C@@H](C)CC)[C@@H](C)CC)C(=O)N[C@@H](CCC(=O)O)C(=O)NCC(=O)N[C@@H](CCCCNC(=O)COCCOCCNC(=O)COCCOCCNC(=O)CC[C@H](NC(=O)CCCCCCCCCCCCC(=O)O)C(=O)O)C(=O)N1CCC[C@H]1C(=O)N[C@@H](CO)C(=O)N[C@@H](CO)C(=O)NCC(=O)N[C@@H](C)C(=O)N1CCC[C@H]1C(=O)N1CCC[C@H]1C(=O)N1CCC[C@H]1C(=O)N[C@@H](CO)C(N)=O [Example 18] | > 9950 | > 9950 | 164 | 1.12 | 86.9 ± 3.59 | 97.1 ± 3.28 | 0.0226 | > 958 | 
2 | CC[C@H](C)[C@H](NC(=O)[C@H](CC(C)C)NC(=O)[C@](C)(Cc1ccc(O)cc1)NC(=O)[C@@H](CCC(=O)O)NC(=O)[C@@H](NC(=O)[C@H](Cc1ccccc1)NC(=O)[C@H](CCC(=O)O)NC(=O)C(C)(C)NC(=O)[C@H](CCC(N)=O)NC(=O)[C@H](C)NC(=O)[C@H](CCCCNC(=O)COCCOCCNC(=O)COCCOCCNC(=O)CC[C@H](NC(=O)CCCCCCCCCCC(=O)O)C(=O)O)NC(=O)[C@H](CCCN)NC(=O)[C@H](CC(=O)O)NC(=O)[C@H](CC(C)C)NC(=O)[C@](C)(CC(C)C)NC(=O)[C@@H](NC(=O)[C@H](CO)NC(=O)[C@H](Cc1ccncc1)NC(=O)[C@H](CC(=O)O)NC(=O)[C@H](CO)NC(=O)[C@@H](NC(=O)[C@](C)(Cc1ccccc1F)NC(=O)[C@@H](NC(=O)CNC(=O)[C@H](CCC(=O)O)NC(=O)C(C)(C)NC(=O)[C@@H](N)Cc1ccc(O)cc1)[C@@H](C)O)[C@@H](C)O)[C@@H](C)CC)[C@@H](C)CC)C(=O)N[C@@H](CCC(=O)O)C(=O)NCC(=O)NCC(=O)N[C@@H](CCCCNC(=O)COCCOCCNC(=O)COCCOCCNC(=O)CC[C@H](NC(=O)CCCCCCCCCCC(=O)O)C(=O)O)C(=O)N[C@@H](CO)C(=O)N[C@@H](CO)C(=O)NCC(=O)N[C@@H](C)C(=O)N1CCC[C@H]1C(=O)N1CCC[C@H]1C(=O)N1CCC[C@H]1C(=O)N[C@@H](CO)C(N)=O [Example 6] | > 9950 | > 9950 | 4.19 | 0.0823 | 89.4 ± 1.74 |  |  | > 969 | 
3 | CC[C@H](C)[C@H](NC(=O)[C@H](CC(C)C)NC(=O)[C@](C)(Cc1ccc(O)cc1)NC(=O)[C@@H](CCC(=O)O)NC(=O)[C@@H](NC(=O)[C@H](Cc1ccccc1)NC(=O)[C@H](CCC(=O)O)NC(=O)C(C)(C)NC(=O)[C@H](CCC(N)=O)NC(=O)[C@H](C)NC(=O)[C@H](CCCCNC(=O)CC[C@H](NC(=O)COCCOCCNC(=O)COCCOCCNC(=O)CCCCCCCCCCCCC(=O)O)C(=O)O)NC(=O)[C@H](CCCN)NC(=O)[C@H](CC(=O)O)NC(=O)[C@H](CC(C)C)NC(=O)[C@](C)(CC(C)C)NC(=O)[C@@H](NC(=O)[C@H](CO)NC(=O)[C@H](Cc1ccncc1)NC(=O)[C@H](CC(=O)O)NC(=O)[C@H](CO)NC(=O)[C@@H](NC(=O)[C@](C)(Cc1ccccc1F)NC(=O)[C@@H](NC(=O)CNC(=O)[C@H](CCC(=O)O)NC(=O)C(C)(C)NC(=O)[C@@H](N)Cc1ccc(O)cc1)[C@@H](C)O)[C@@H](C)O)[C@@H](C)CC)[C@@H](C)CC)C(=O)N[C@@H](CCC(=O)O)C(=O)NCC(=O)NCC(=O)N[C@@H](CCCCNC(=O)CC[C@H](NC(=O)COCCOCCNC(=O)COCCOCCNC(=O)CCCCCCCCCCCCC(=O)O)C(=O)O)C(=O)N[C@@H](CO)C(=O)N[C@@H](CO)C(=O)NCC(=O)N[C@@H](C)C(=O)N1CCC[C@H]1C(=O)N1CCC[C@H]1C(=O)N1CCC[C@H]1C(=O)N[C@@H](CO)C(N)=O [Example 41] | > 9950 | > 9950 | 27.2 | 0.405 | 88.5 ± 0.638 |  | 0.0108 | > 957 | 0.691
